# pIC50: −log10 of the molar value.
# Experiments:
# [1] = system: Kv3 channels in FS neurons; assay: Whole-cell voltage clamp of Kv3 delayed rectifier currents in acutely dissociated FS neurons; assay type: cell-based, rat
# Text: Tissue preparation. […] Hippocampal interneurons and GP were identified as CaMKII negative, GAD67 and parvalbumin positive neurons by single cell RT-PCR detection of corresponding mRNAs following physiology experiments (see below).
# Electrophysiology. Whole-cell recordings used standard techniques^27,28. The internal solution consisted of (in mM): 30-90 K2SO4, 0-60 N-methyl-D-glucamine, 2 MgCl2, 40 HEPES, 5 EGTA, 12 phosphocreatine, 2 Na2ATP, 0.2 Na3GTP, and 0.1 leupeptin, pH 7.2 with H2SO4 (osmolarity 260-270 mOsm/l). The external solution consisted of (in mM): 140 Na-isethionate, 2 KCl, 4 MgCl2, 10 HEPES, 12 glucose and 0.001 TTX, pH 7.35 with NaOH (osmolarity 295-305 mOsm/l). The internal solution for current clamp recordings consisted of (in mM) 110 potassium methylsulphate, 2 MgCl2, 40 HEPES, 5 EGTA, 12 phosphocreatine, 2 Na2ATP, 0.2 Na3GTP, and 0.1 leupeptin, pH 7.2 with H2SO4 (osmolarity 260-270 mOsm/l). In the case of current clamp recordings, TTX was omitted from external solution. For the recordings in the presence of Ca^+2 ions EGTA was omitted from internal solution and 4 mM of MgCl2 was substituted by 2 mM of CaCl2 and 2 mM of MgCl2. All drugs were obtained from Sigma (St. Louis, […]) except BDS-I that was obtained from Alomone Labs (Jerusalem, Israel). Solutions were applied by gravity fed sewer pipe system. Recordings were obtained with Axon Instruments 200 patch-clamp amplifier and controlled and monitored with a PC running pClamp software (version 7.0) (Axon Instruments Inc., Union City, Calif.). […] After seal rupture, series resistance (2-10 MΩ) was compensated (75-90%) and periodically monitored. […] Activation data were fit with a Boltzmann equation of the form: 1/(1+exp ((Vh−V)/Vc), V stands for membrane potential. In the case of Kv3.4a current, an estimate of peak current was obtained by single exponential fit of decay phase extrapolated to the start of test pulse. In all other instances the voltage dependence of the currents was obtained from the amplitude of tail currents measured following 200 msec long voltage steps. […]
# [2] = system: K+ channels in the Kv1, Kv2, Kv3, and Kv4 subfamilies; details: cited from earlier work
# Kv3.1 channel = molecular target: T1, Kv3.1 channel (Rattus norvegicus, UniProt P25122); details: low micromolar concentrations; cited from earlier work
# T1 sequence (P25122 1-585): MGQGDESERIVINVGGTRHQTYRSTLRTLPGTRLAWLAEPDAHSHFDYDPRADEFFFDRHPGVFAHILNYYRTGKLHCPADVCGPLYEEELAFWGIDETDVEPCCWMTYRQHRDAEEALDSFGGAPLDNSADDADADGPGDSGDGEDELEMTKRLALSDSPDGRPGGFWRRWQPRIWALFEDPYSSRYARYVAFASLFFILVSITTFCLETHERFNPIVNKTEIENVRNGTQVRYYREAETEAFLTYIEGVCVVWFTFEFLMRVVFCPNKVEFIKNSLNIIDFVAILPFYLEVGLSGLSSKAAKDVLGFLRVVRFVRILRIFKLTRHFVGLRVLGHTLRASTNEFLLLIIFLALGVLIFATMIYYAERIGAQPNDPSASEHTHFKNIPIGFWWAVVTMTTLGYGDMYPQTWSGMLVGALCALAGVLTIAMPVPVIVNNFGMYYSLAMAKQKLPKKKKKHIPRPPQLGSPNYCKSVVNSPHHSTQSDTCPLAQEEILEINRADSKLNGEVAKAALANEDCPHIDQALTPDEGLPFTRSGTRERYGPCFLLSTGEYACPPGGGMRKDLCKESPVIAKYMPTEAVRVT
# Kv3.4 channel = molecular target: T2, Kv3.4 channel (Rattus norvegicus, UniProt Q63734); details: COS-transfected cells, reversible; read-out: IC50, inhibition of Kv3.4 current; cited from earlier work
# T2 construct: host or cells: COS cells
# T2 sequence (Q63734 1-625): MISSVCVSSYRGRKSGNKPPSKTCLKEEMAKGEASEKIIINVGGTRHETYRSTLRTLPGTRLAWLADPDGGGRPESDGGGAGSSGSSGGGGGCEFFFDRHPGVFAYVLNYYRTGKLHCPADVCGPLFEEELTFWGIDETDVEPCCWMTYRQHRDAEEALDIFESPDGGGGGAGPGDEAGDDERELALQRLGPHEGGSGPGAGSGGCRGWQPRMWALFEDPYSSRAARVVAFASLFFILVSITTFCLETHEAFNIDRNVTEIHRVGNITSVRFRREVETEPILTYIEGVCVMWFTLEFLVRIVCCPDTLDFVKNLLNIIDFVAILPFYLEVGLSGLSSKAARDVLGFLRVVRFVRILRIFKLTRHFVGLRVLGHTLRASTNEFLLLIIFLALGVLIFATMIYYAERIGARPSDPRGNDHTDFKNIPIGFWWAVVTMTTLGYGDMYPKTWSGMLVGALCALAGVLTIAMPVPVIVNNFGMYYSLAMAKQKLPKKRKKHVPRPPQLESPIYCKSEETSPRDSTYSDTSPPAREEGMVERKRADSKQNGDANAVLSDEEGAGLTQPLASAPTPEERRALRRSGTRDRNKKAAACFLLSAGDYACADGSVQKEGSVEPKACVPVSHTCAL
substance,measurement,setting,value
BDS-I (AAPCFCSGKPGRGDLWILRGTCPGGYGYTSNCYKWPNICCYPH),"block of TEA-sensitive, Kv3 channel currents in FS neurons",[1],efficiently blocked
same,effect on delayed rectifier currents evoked by depolarization in FS neurons,[1],slowed the rising phase of delayed rectifier currents evoked by depolarization and reduced their amplitude
same,time for substantial unblocking of channels containing Kv3.4 subunits,[1]; at +20 mV,more than 5 msec
same,"block of other K+ channels in the Kv1, Kv2, Kv3, and Kv4 subfamilies",[2],failed to block
same,effects on Kv3.1 channel currents,Kv3.1 channel,only minor effects
same,pIC50,Kv3.4 channel,7.33
